Assay results reported in US5792851A, “Human prostaglandin transporter” (Albert Einstin College of Medicine of Yeshiva University, a …, priority 1996, dated 1998).

Tests used:
[1] = target: T1, human prostaglandin transporter (hPGT) (Homo sapiens, UniProt Q92959); assay: Inhibition of hPGT-mediated tracer PGE2 uptake in transfected HeLa cells; type: cell-based
[2] = target: T1, human prostaglandin transporter (hPGT); assay: Timed uptake of tracer 3[H]-prostaglandins into HeLa cells expressing clone 3 (hPGT); type: cell-based; details: for 2-minute rank-order of uptakes: 2 minutes, 27° C., tracer 0.6-1.0 nM; for difference between transport rates: 10 and 20 minutes
rat PGT [3] = details: reference 36; cited from earlier work
rat PGT [4] = assay: Tracer prostaglandin transport by rat PGT re-expressed in HeLa cells; type: cell-based; details: data not shown
[5] = HeLa, 10 min, read-out: percent of the control 10-min tracer PGE2 uptake

| SMILES | remaining activity at 10 µM [1, 5] | remaining activity at 100 µM [1, 5] | 2-minute rank-order of uptakes [2] | difference between transport rates [2] | remaining activity at 0.1 µM [1, 5] | other results |
| --- | --- | --- | --- | --- | --- | --- |
| COc1ccc2c(c1)c(CC(=O)O)c(C)n2C(=O)c1ccc(Cl)cc1 [Indomethacin] | 114 ± 3.8% | 82.5 ± 1% | – | – | – | potency as inhibitor of hPGT (in words) [1]: much less effective |
| CCCN(CCC)S(=O)(=O)c1ccc(C(=O)O)cc1 [Probenecid] | 104 ± 5.2% | 92.8 ± 2% | – | – | – | potency as inhibitor of hPGT (in words) [1]: much less effective |
| CC#CCC(C)[C@H](O)/C=C/[C@@H]1[C@H]2C/C(=C/CCCC(=O)O)C[C@H]2C[C@H]1O (stereo partly shown) [iloprost] | – | – | – | – | – | transport above baseline ([2]; 3[H]-iloprost 7.9 nM, data not shown): not transported above baseline |
| CCCCC[C@H](O)/C=C/[C@H]1OC(O)C[C@H](O)[C@@H]1C/C=C\CCCC(=O)O (stereo partly shown) [TxB2] | – | – | PGE2 >PGE1>PGF2α >PGD2 >TxB2 | – | – | remaining activity at 0.5 µM [1, 5]: 26.7 ± 0.1%; transport rate relative to PGE2 or PGF2α (rat PGT [3]): about half that of PGE2 or PGF2α; transport rate relative to PGE2 or PGF2α ([2]; hPGT, FIG. 2): about half that of PGE2 or PGF2α |
| CCCCC[C@H](O)/C=C/[C@H]1[C@H](O)CC(=O)[C@@H]1C/C=C\CCCC(=O)O [PGE2] | – | – | PGE2 >PGE1>PGF2α >PGD2 >TxB2 | essentially no difference | – | – |
| NS(=O)(=O)c1cc(C(=O)O)c(NCc2ccco2)cc1Cl [Furosemide] | 91.5 ± 3.3% | 63.3 ± 1.7% | – | – | – | – |
| CCCCC[C@H](O)/C=C/[C@H]1C(=O)C[C@H](O)[C@@H]1C/C=C\CCCC(=O)O [PGD2] | – | – | PGE2 >PGE1>PGF2α >PGD2 >TxB2 | essentially no difference | 47.9 ± 0.9% | transport rate of tracer relative to PGE2 (rat PGT [4]): at a rate equivalent to that of PGE2 |
| CCCCC[C@H](O)/C=C/[C@@H]1[C@@H](C/C=C\CCCC(=O)O)[C@@H](O)C[C@H]1O [PGF2α] | – | – | PGE2 >PGE1>PGF2α >PGD2 >TxB2 | essentially no difference | 45 ± 1.3% | – |
| CCCCC[C@H](O)/C=C/[C@H]1[C@H](O)CC(=O)[C@@H]1CCCCCCC(=O)O [PGE1] | – | – | PGE2 >PGE1>PGF2α >PGD2 >TxB2 | essentially no difference | 50.8 ± 3.4% | – |
